Source: US20230035403A1, “Method For Determining Responsiveness To Prostate Cancer Treatment” (Janssen Biotech, Inc., priority 2020, published 2023)

Columns and labels:
[1] = tested on: CD8+ T cells in PBMCs from patients with metastatic castrate-resistant prostate cancer; assay: Patient PBMC restimulation assay (in vitro immunogenicity of neoantigens); format: cell-based, human; conditions: for Immunogenic: Patient PBMC restimulation, TNFα and IFNγ production by CD8+ T cells; for Maximum fold change over negative control: TNFα+IFNγ+CD8+ T cells, highest fold change across the PBMC donors evaluated, 9 mer peptide; for Maximum frequency of TNFα^+IFNγ^+CD8^+ T cells (Percent): greatest frequency among all tested PBMC donors, negative control 0.011-0.8 depending on patient
Experimental: PBMCs from human patients with metastatic castrate-resistant prostate cancer were thawed using media (RPMI 1640 supplemented with Glutamax, 10% HI FBS, and 1× Sodium Pyruvate). Cells were counted and plated in a 96 well round bottom microplate at a concentration of 250,000 viable cells per well. Lyophilized peptides were solubilized in 100% DMSO and diluted in media to 10 μg/mL. Neoantigen peptides were added in equal volume to PBMCs for a final concentration of 5 μg/mL. CEF Peptide Pool “Plus” (Cellular Technologies, Ltd.) was utilized as a positive control and DMSO at the same final concentration as the experimental peptides was utilized as a negative control. Human IL-15 (Peprotech) was added to all wells at final concentration of 10 ng/mL.
Plates were incubated at 37° C. (5% CO2) for a total of 13 days. Media was refreshed every 2 days with IL-15 (10 ng/mL final concentration) and IL-2 (R&D systems, 10 IU/mL final concentration). On day 12, PBMCs were re-stimulated with identical experimental peptides or controls, at same concentration as peptide stimulation on Day 1. After 1-hour incubation, protein Inhibitor Cocktail (eBioscience) was added to every well and plate was incubated overnight.
(§1) On day 13, cells were stained for intracellular flow cytometry analysis. The cells were washed with PBS and stained with Live/Dead Fixable Aqua Dead Cell stain (Thermo-Fisher). Following the live/dead stain, cells were blocked using Biotin-Free Fc Receptor Blocker (Accurate Chemical & Scientific Corp). Extracellular cellular flow panel (1 μL/antibody per well in 50 μL) consisted of CD3 PerCP-Cy5.5 (Biolegend), CD4 BV421 (Biolegend), and CD8 APC-Cy7 (Biolegend). After extracellular staining, cells were fixed using Foxp3/Transcription Factor Staining Buffer Set (eBioscience) and stained for intracellular proteins (1:50 dilution) using TNFα FITC (R&D Systems) and IFNγ BV785 (Biolegend). Cells were washed and resuspended in stain buffer and analyzed using a BD Celesta flow cytometer.
Flow cytometry cell staining analysis was completed using FlowJo v10. Cells were gated on live, singlet, CD3+ cells. The CD8+ T cells were analyzed for TNFα/IFNγ expression and the frequency of double positive TNFα/IFNγ CD8+ T cells was recorded. Responses were assessed to be positive when the frequency of double positive TNFα/IFNγ CD8+ T cells due to stimulation with an experimental peptide was increased greater than or equal to 2-fold over the DMSO only negative control for that patient. Peptides were analyzed in 1 to 7 patient samples.
The 9 mer fragments shown in Table 13 were assessed for their ability to activate T cells using the Patient PBMC restimulation assay described in Example 1 using TNFα and IFNγ production by CD8^+ T cells as a readout. Self-antigens shown in Table 15 were also used in the assays. […] PBMCs from ten patients were evaluated.

[2] = tested on: autologous CD3+ Pan-T cells (CD8+ and CD4+ T cells) with peptide-pulsed CD1c+ Dendritic Cells; assay: Exogenous autologous normal donor restimulation assay (in vitro immunogenicity); format: cell-based, human; set-up: key to Max. Frequency of CD8+ TNFαINFγ DP / Max. Frequency of CD4+ TNFαINFγ DP: % of T cells double positive for TNFα/IFNγ; conditions: pool of overlapping 15-mer peptides, maximum across normal donors; for Maximum Fold Change Over Background CD4+ cells / Maximum Fold Change Over Background CD8+ cells / Maximum Frequency of TNFα/IFNγ Double Positive CD4+ T cells / Maximum Frequency of TNFα/IFNγ Double Positive CD8+ T cells: Table 25; for Maximum Fold Change Over Background CD4+ cells: TNFα+IFNγ+ CD4+ T cells; for Maximum Fold Change Over Background CD4+ cells / Maximum Fold Change Over Background CD8+ cells: over negative control; for Maximum Fold Change Over Background CD8+ cells: TNFα+IFNγ+ CD8+ T cells; for Max. Fold Change over background CD4+ TNFαINFγ double positive DP / Max. Fold Change over background CD8+ TNFαINFγ double positive DP / Max. Frequency of CD4+ TNFαINFγ DP / Max. Frequency of CD8+ TNFαINFγ DP: Table 28, additional neoantigens
Experimental: CD1c+ Dendritic Cells (DC) isolated from human normal PBMCs were thawed using media (IMDM (Gibco) supplemented with glutamine, HEPES, 5% human serum (Sigma), and 1× Pen-Strep). DC cells were resuspended in media supplemented with IL-4 (Peprotech, 80 ng/mL) and GM-CSF (Gibco, 80 ng/mL), plated in 6 well microplates, and rested overnight at 37° C. (5% CO2). The following day, DC cells were counted and plated in a 96 well round bottom microplate at a concentration of 30,000 viable cells per well. Lyophilized peptides (15-mer overlapping peptides) were solubilized in 100% DMSO and pooled by neoantigen to between 5 mg/mL and 20 mg/mL. Neoantigen peptides pools were added to DCs for a final concentration of 2.5 μg/mL to 10 μg/mL and rested for 2 hours at 37° C. (5% CO2). CEF Peptide Pool “Plus” (Cellular Technologies, Ltd.) was utilized as a positive control and DMSO at the same final concentration as the experimental peptides was utilized as a negative control. After 2 hours, DC cells were irradiated with 50 gray of ionizing radiation. Autologous CD3+ Pan-T cells isolated from human normal PBMCs were thawed using media. Following irradiation, autologous Pan-T cells were added to the irradiated DCs at 300,000 viable cells per well. Human IL-15 (Peprotech) was added to all wells at final concentration of 10 ng/mL.
Plates were incubated at 37° C. (5% CO2) for a total of 12 days. Media was refreshed every 2-3 days with IL-15 (10 ng/mL final concentration) and IL-2 (R&D systems, 10 IU/mL final concentration). On day 11 cells were re-stimulated with identical experimental peptide pools or controls, at same concentration as peptide stimulation on Day 1. Protein Inhibitor Cocktail (eBioscience) was added to every well and plate was incubated overnight at 37° C. (5% CO2).
as §1, with “12,” for “13,”
Flow cytometry cell staining analysis was completed using FlowJo v10. Cells were gated on live, singlet, CD3+ cells. The CD8+ and CD4+ T cells were analyzed for TNFα/IFNγ expression and the frequency of double positive TNFα/IFNγ CD8+ and the frequency of double positive TNFα/IFNγ CD4+ T cells were recorded. Responses were assessed to be positive when the frequency of double positive TNFα/IFNγ CD8+ or TNFα/IFNγ CD4+ T cells due to stimulation with an experimental peptide pool was increased greater than or equal to 3-fold over the DMSO only negative control for that donor and at least 0.01%.
(§2) Overlapping 15-mer peptides were designed to span each neoantigen incorporated into NeoGAd20 and NeoMVA to assess their ability to activate T cells using the exogenous autologous normal donor restimulation assay described in Example 1 as pools using TNFα and IFNγ production by CD8^+ and CD4^+ T cells as a readout.
as §2, with “Immunogenicity of various additional identified neoantigens was assessed. Overlapping” for “Overlapping”, “similarly to what was done in Example 11” for “incorporated into NeoGAd20 and NeoMVA”

| Substance | Immunogenic [1] | Maximum fold change over negative control [1] | Maximum frequency of TNFα^+IFNγ^+CD8^+ T cells (Percent) [1] [%] | Maximum Fold Change Over Background CD4+ cells [2] | Maximum Fold Change Over Background CD8+ cells [2] | Maximum Frequency of TNFα/IFNγ Double Positive CD4+ T cells [2] | Maximum Frequency of TNFα/IFNγ Double Positive CD8+ T cells [2] | Max. Fold Change over background CD4+ TNFαINFγ double positive DP [2] | Max. Fold Change over background CD8+ TNFαINFγ double positive DP [2] | Max. Frequency of CD4+ TNFαINFγ DP [2] | Max. Frequency of CD8+ TNFαINFγ DP [2] |
| --- | --- | --- | --- | --- | --- | --- | --- | --- | --- | --- | --- |
| GVPGDSTRRAVRRMNTF [Neoantigen P16] | Yes | 65.82 | 4.620 | 2.44 | 2.44 | 0.039 | 0.039 |  |  |  |  |
| HYKLIQQPISLFSITDRLHKTFSQLPSVHLCSITFQWGHPPIFCSTNDICVTANFCISVTFLKPCFLLHEASASQ [MS1] |  |  |  | 50.19 | 5.56 | 0.39 | 0.1 |  |  |  |  |
| NSKMALNSLNSIDDAQLTRIAPPRSHCCFWEVNAP [Neoantigen P35] | Yes | 2.67 | 0.064 | 3.47 | 14.44 | 0.03 | 0.26 |  |  |  |  |
| P19 (IPVLTRWPL) [Neoantigen P19] |  |  |  |  |  |  |  | 6.67 | 4.76 | 0.16 | 0.15 |
| P27 (FPVGAEGTF) [Neoantigen P27] |  |  |  |  |  |  |  | 45.38 | 7.87 | 0.05 | 0.59 |
| P27 (FPVGAEGTF) [Peptide P27] | Yes | 3.43 | 0.430 |  |  |  |  |  |  |  |  |
| P37 (GVLRRLLCR) [Neoantigen P37] |  |  |  |  |  |  |  | 22.78 | 2.05 | 0.09 | 0.13 |
| P37 (GVLRRLLCR) [Peptide P37] | Yes |  | 1.160 |  |  |  |  |  |  |  |  |
| P50 (IQYSCMGLM) [Peptide P50] | Yes | 5.14 | 0.190 |  |  |  |  |  |  |  |  |
| P59 (NMVENGCYL) [Peptide P59] | Yes | 10.75 | 3.010 |  |  |  |  |  |  |  |  |
| P97 (LMAQRLLLR) [Neoantigen P97] |  |  |  |  |  |  |  | 3.14 | 7.47 | 0.12 | 1.11 |
| TMPAILKLQKNCLLSL [MS8] |  |  |  | 15.60 | 4.44 | 0.40 | 0.14 |  |  |  |  |
| YAYKDFLWCFPFSLVFLQEIQICCHVSCLCCICCSTRICLGCLLELFLSRALRALHVLWNGFQLHCQ [MS6] |  |  |  | 111.97 | 4.17 | 0.87 | 0.08 |  |  |  |  |
